Counter-ions that a name gives are not always drawn. Like-named read-outs stand apart in the source and are kept apart here. Each block holds one molecule with its values, some of them ahead of it.
How the values were obtained:
[1] = test system: human breast cancer cell line (MCF-7); assay: SRB cytotoxicity assay, MCF-7; assay type: cell-based
Procedure: (§1) For in vitro cytotoxicity screening, 1000 to 5000 cells were plated into each well of 96-well plates depending on growth rate, and exposed to different concentrations of a test compound for 96 h in three to five replicates. All the compounds were dissolved in dimethyl sulfoxide at 5 to 20 mM, and diluted to desired concentrations in complete culture medium. Cell numbers at the end of the drug treatment were measured by the SRB assay (Gududuru et al., “Synthesis and Biological Evaluation of Novel Cytotoxic Phospholipids for Prostate Cancer,” Bioorg. Med. Chem. Lett. 14:4919-4923 (2004); Rubinstein et al., “Comparison of in vitro Anticancer-Drug-Screening Data Generated with a Tetrazolium Assay Versus a Protein Assay Against a Diverse Panel of Human Tumor Cell Lines,” J. Natl. Cancer Inst. 82:1113-1118 (1990), each of which is hereby incorporated by reference in its entirety). Briefly, the cells were fixed with 10% of trichloroacetic acid, stained with 0.4% SRB, and the absorbances at 540 nm was measured using a plate reader (DYNEX Technologies, Chantilly, Va.). […] A sandwich ELISA (Roche, Mannheim, Germany) utilizing monoclonal antibodies specific for DNA and histones was used to quantify degree of apoptosis induced by the analogs after 72 h exposure. This assay measures DNA-histone complexes (mono- and oligonucleosomes) released into cytoplasm from the nucleus during apoptosis.
In vitro cytotoxicity assay was performed by the same sulforhodamine B (SRB) assay (described above). The compounds shown in Table 8 below where tested for activity against the breast cancer and ovarian cancer cell lines.
RH7777 and CV-1 cells were used as negative controls and MCF-7 cell line (breast cancer) was included to examine the selectivity.

[2] = test system: RH7777 rat hepatoma cells; assay: SRB cytotoxicity assay, RH7777 control cell line; assay type: cell-based; conditions: SRB assay, 96 h exposure, control cell line
Procedure: as §1

[3] = test system: DU-145 human prostate cancer cells; assay: SRB cytotoxicity assay, DU-145; assay type: cell-based
Procedure: as §1

[4] = test system: LNCaP human prostate cancer cells; assay: SRB cytotoxicity assay, LNCaP; assay type: cell-based; conditions: 96 h exposure, prostate cancer cell line
Procedure: as §1

[5] = test system: PPC-1 human prostate cancer cells; assay: SRB cytotoxicity assay, PPC-1; assay type: cell-based; conditions: prostate cancer cell line
Procedure: (§2) Dr. Mitchell Steiner at University of Tennessee Health Science Center, kindly provided PPC-1 and TSU-Pr1 cells.
as §1

[6] = test system: TSU-Pr1 human prostate cancer cells; assay: SRB cytotoxicity assay, TSU-Pr1; assay type: cell-based; conditions: prostate cancer cell line
Procedure: as §2, §1

[7] = test system: SKMEL-188 melanoma cells; assay: Sulforhodamine B assay in melanoma cells, SKMEL-188; assay type: cell-based; conditions: SRB assay, 48 h incubation, melanoma cell line
Procedure: (§3) SKMEL-188 cells were cultured in Ham's F10 medium (Gibco Invitrogen, Inc., Grand Island, N.Y.) plus 5% fetal bovine serum (Cellgro Mediatech, Inc., Herndon, Va.) and 1% antibiotic/antimycotic mixture (Sigma-Aldrich, Inc., St. Louis, Mo.). WM-164 cells (gift of Dr. Meenhard Herlyn, Wistar Inst., Philadelphia, Pa.) and human dermal fibroblasts (Cascade Biologics, Inc., Portland, Oreg.) were cultured in DMEM medium (Cellgro Mediatech, Inc.) supplemented with 5% fetal bovine serum, 1% antibiotic.antimycotic mixture and bovine insulin ([…], Sigma-Aldrich, Inc.). Human dermal fibroblasts were used as a control to examine the effects of compounds on stromal environment. Thus, the effect of the various compounds on melanoma cells versus fibroblasts would document their potential selectivity.
(§4) Sulforhodamine B Assay: Cells were seeded into 96-well plates at 5000 cells/well. After 12 hours, media were changed and serial dilutions of compounds were added. Cells were incubated with each compound for 48 hours. Fresh media containing the test compound were changed ever 24 hours. Thereafter, total cell protein corresponding to cell numbers (both viable and non-viable cells) were measured using the sulforhodamine B (SRB) assay according to manufacturer's protocol (Sigma-Aldrich, Inc.) (Rubinstein et al., “Comparison of in vitro Anticancer Drug-screening Data Generated with a Tetrazolium Assay Versus a Protein Assay Against a Diverse Panel of Human Tumor Cell Lines,” J. Natl. Cancer Inst. 82:1113-1118 (1990); Dothager et al., “Synthesis and Identification of Small Molecules that Potently Induce Apoptosis in Melanoma Cells Through GI Cell Cycle Arrest,” J. Am. Chem. Soc. 127:8686-8696 (2005), each of which is hereby incorporated by reference in its entirety). Briefly, cells were fixed with trichloracetic acid, washed and incubated with sulforhodamine B for 30 minutes. After another wash, dye incorporated into the cells was solubilized and measured using a plate reader at 565 nm.
(§5) Statistical Analysis: Data is presented as mean±SEM (n=6-8). […] Statistical analyses were performed with Student's t-test (*p<0.05; **p<0.005).
(§6) DTIC and Taxol were assayed in the same way for comparison and served as internal quality controls in the different batches of assay. For comparison, the activities of 5R and 5S were measured.

[8] = test system: WM-164 cells; assay: Sulforhodamine B assay in melanoma cells, WM-164; assay type: cell-based; conditions: SRB assay, 48 h incubation, melanoma cell line
Procedure: as §3, §4, §5, §6

[9] = test system: human dermal fibroblasts; assay: Sulforhodamine B assay, fibroblast control cells; assay type: cell-based; conditions: SRB assay, 48 h incubation
Procedure: as §3, §4, §5, §6

[10] = test system: PC-3 human prostate cancer cells; assay: SRB cytotoxicity assay, PC-3; assay type: cell-based; conditions: 96 h exposure, prostate cancer cell line
Procedure: as §1

[11] = test system: CV-1 cells; assay: SRB cytotoxicity assay, CV-1 control cell line; assay type: cell-based
Procedure: For in vitro cytotoxicity screening, 1000 to 5000 cells were plated into each well of 96-well plates depending on growth rate, and exposed to different concentrations of a test compound for 96 h in three to five replicates. All the compounds were dissolved in dimethyl sulfoxide at 5 to 20 mM, and diluted to desired concentrations in complete culture medium. Cell numbers at the end of the drug treatment were measured by the SRB assay (Gududuru et al., “Synthesis and Biological Evaluation of Novel Cytotoxic Phospholipids for Prostate Cancer,” Bioorg. Med. Chem. Lett. 14:4919-4923 (2004); Rubinstein et al., “Comparison of in vitro Anticancer-Drug-Screening Data Generated with a Tetrazolium Assay Versus a Protein Assay Against a Diverse Panel of Human Tumor Cell Lines,” J. Natl. Cancer Inst. 82:1113-1118 (1990), each of which is hereby incorporated by reference in its entirety). Briefly, the cells were fixed with 10% of trichloroacetic acid, stained with 0.4% SRB, and the absorbances at 540 nm was measured using a plate reader (DYNEX Technologies, Chantilly, Va.). […] A sandwich ELISA (Roche, Mannheim, Germany) utilizing monoclonal antibodies specific for DNA and histones was used to quantify degree of apoptosis induced by the analogs after 72 h exposure. This assay measures DNA-histone complexes (mono- and oligonucleosomes) released into cytoplasm from the nucleus during apoptosis. RH7777 cells were employed because of nonspecific cytotoxicity of compound 4 in receptor-negative cells as well as receptor-positive prostate cancer cells.
RH7777 and CV-1 cells were used as negative controls and MCF-7 cell line (breast cancer) was included to examine the selectivity. 5-Fluorouracil was used as reference drug.

[12] = Homo sapiens, PPC-1, 96 h exposure
[13] = Homo sapiens, WM164, read-out: IC50 WM-164
[14] = read-out: IC50 DU-145, 96 h exposure, prostate cancer cell line

SMILES: CCCCCCCCCCCCCCCCCCNC(=O)[C@@H]1CSC(c2ccc([N+](=O)[O-])cc2)N1 (mixture of isomers) [Compound 21, (2RS, 4R)-2-(4-Nitro-phenyl)-thiazolidine-4-carboxylic acid octadecylamide]
IC50 ([1]; Homo sapiens, MCF7, SRB assay): 15.3 µM

SMILES: CCCCCCCCCCCCCCOCCCNCCCNC(=O)[C@@H](CO)NC(=O)OC(C)(C)C
IC50 ([7]; SK-MEL-188, 48 h): 3.8 µM | IC50 [8, 13]: 3.3 µM | IC50 ([9]; Homo sapiens, Fibroblast, 48 h): 3.4 µM

SMILES: COc1cc(C2NC(C(=O)NCCCNCCCCNCCCN)CS2)cc(OC)c1OC (mixture of isomers) [Compound 224]
IC50 [2]: 71.9 µM | IC50 [3, 14]: 5.1 µM | IC50 [10]: 5.9 µM | IC50 [4]: 10.9 µM | IC50 ([5]; 96 h exposure): 5 µM | IC50 ([6]; 96 h exposure): 3 µM | IC50 ([1]; SRB assay): > 100 µM | IC50 [11]: 30.5 µM

SMILES: CCCCCCCCCCCCCCCCCCNC(=O)[C@@H]1CSC(c2ccc(F)cc2)N1 (mixture of isomers) [Compound 19, (2RS, 4R)-2-(4-Fluoro-phenyl)-thiazolidine-4-carboxylic acid octadecylamide]
IC50 ([10]; Homo sapiens): 6.8 µM

SMILES: CCCCCCCCCCCCCCCCCCNC(=O)[C@@H]1CSC(c2ccc(OC)cc2)N1.Cl (mixture of isomers) [Compound 15, (2RS, 4R)-2-(4-Methoxy-phenyl)-thiazolidine-4-carboxylic acid octadecylamide Hydrochloride]
IC50 ([7]; SK-MEL-188, 48 h): 9.7 µM | IC50 [8, 13]: 13.1 µM | IC50 ([9]; Homo sapiens, Fibroblast, 48 h): 28 µM | melting point: 95 °C

SMILES: CCCCCCCCCCCCCCCCCCNC(=O)[C@@H]1CSC(C2CCCCC2)N1 (mixture of isomers) [Compound 8, (2RS, 4R)-2-Cyclohexylthiazolidine-4-carboxylic acid octadecylamide]
IC50 [8, 13]: > 50 µM

SMILES: NCCCNCCCCNCCCNC(=O)CN1C(=O)CSC1c1ccccc1 (stereo not drawn) [Compound 220]
IC50 [2]: 68.4 µM | IC50 [3, 14]: 5.3 µM | IC50 [10]: 7 µM | IC50 [4]: 12.2 µM | IC50 ([5]; 96 h exposure): 5.7 µM | IC50 ([6]; 96 h exposure): 3.2 µM | IC50 ([1]; SRB assay): > 100 µM | IC50 [11]: 34 µM

SMILES: CCCCCCCCCCCCCCCCCCNC(=O)[C@@H]1CSC(c2c[nH]c3ccccc23)N1 (mixture of isomers) [Compound 10, (2RS, 4R)-2-(1H-Indol-3yl)-thiazolidine-4-carboxylic acid octadecylamide]
IC50 ([1]; Homo sapiens, MCF7, SRB assay): 10.6 µM

SMILES: NCCCNCCCCNCCCNC(=O)C(N)CO (stereo not drawn) [Compound 216]
IC50 [2]: 58.2 µM | IC50 [3, 14]: 4.6 µM | IC50 [10]: 4.8 µM | IC50 [4]: 8 µM | IC50 ([5]; 96 h exposure): 4 µM | IC50 ([6]; 96 h exposure): 2.5 µM | IC50 ([1]; SRB assay): > 100 µM | IC50 [11]: 37.1 µM

SMILES: CCCCCCCCCCCCCCCCCCNC(=O)C1CSC(c2ccoc2)N1 (stereo not drawn) (as salt: hydrochloride) [Compound 12, 2-(furan-3-yl)-N-octadecylthiazolidine-4-carboxamide]
melting point: 99 °C

SMILES: CCCCCCCCCCCCCCCCCCNC(=O)[C@@H]1CSC(CCCCCCCCCCCC)N1 (mixture of isomers) [Compound 7, (2RS, 4R)-2-Dodecylthiazolidine-4-carboxylic acid octadecylamide]
melting point: 86 °C

More lines, main results first:

melting point: 90 °C
SMILES: CCCCCCCCCCCCCCCCCCNC(=O)[C@@H]1CSC(c2ccc(C#N)cc2)N1 (mixture of isomers) [Compound 22, (2RS, 4R)-2-(4-Cyano-phenyl)-thiazolidine-4-carboxylic acid octadecylamide]
IC50 ([2]; Rattus norvegicus, RH7777): > 20 µM | IC50 ([3]; Homo sapiens, DU-145, read-out: IC50 DU-145, 96 h exposure, prostate cancer cell line): > 20 µM | IC50 ([4]; Homo sapiens, LNCaP): 5.9 µM | IC50 [5, 12]: 5 µM | IC50 ([6]; Homo sapiens, TSU-Pr1, 96 h exposure): > 20 µM

IC50 ([7]; SK-MEL-188, 48 h): 3.2 µM | IC50 [8, 13]: 3.6 µM
SMILES: CCCCCCCCCCCCCCCCCCNC[C@@H](CO)NC [drawing 31]
IC50 ([9]; Homo sapiens, Fibroblast, 48 h): 1.6 µM

melting point: 130 °C
SMILES: CCCCCCCCCCCCCCCCCCNC(=O)[C@@H]1CSC(c2ccc(-c3ccccc3)cc2)N1.Cl (mixture of isomers) [Compound 27, (2RS, 4R)-2-Biphenyl-4-yl-thiazolidine-4-carboxylic acid octadecylamide Hydrochloride]

IC50 [7]: 3.1 µM | IC50 ([8]; read-out: IC50 WM-164): 3.6 µM
SMILES: CCCCCCCCCCCCCCCCCCNC[C@@H](CO)NC [drawing 32]
IC50 [9]: 2.3 µM

IC50 ([7]; SK-MEL-188, 48 h): 2.7 µM | IC50 [8, 13]: 5.5 µM | melting point: 170 °C
SMILES: CCCCCCCCCCCCCCCCCCNC(=O)[C@@H]1CSC(c2ccc(NC(C)=O)cc2)N1.Cl (mixture of isomers) [Compound 18, (2RS, 4R)-2-(4-Acetylamino-phenyl)-thiazolidine-4-carboxylic acid octadecylamide Hydrochloride]
IC50 ([9]; Homo sapiens, Fibroblast, 48 h): > 10 µM

IC50 ([7]; SK-MEL-188, 48 h): 1.8 µM | IC50 [8, 13]: 1.5 µM | melting point: 115 °C
SMILES: CCCCCCCCCCCCCCCCCCNC(=O)[C@@H]1CSC(c2cc(OC)c(OC)c(OC)c2)N1.Cl (mixture of isomers) [Compound 17, (2RS, 4R)-2-(3,4,5-Trimethoxy-phenyl)-thiazolidine-4-carboxylic acid octadecylamide Hydrochloride]
IC50 [5, 12]: 0.48 µM | IC50 ([9]; Homo sapiens, Fibroblast, 48 h): 5.2 µM

melting point: 49 °C
SMILES: CCCCCCCCCCCCCCCCCCNC(=O)[C@@H]1CSC(c2c(Cl)cccc2Cl)N1 (mixture of isomers) [Compound 24, (2RS, 4R)-2-(2,6-Dichloro-phenyl)-thiazolidine-4-carboxylic acid octadecylamide]

Source: US7662842B2, “Thiazolidinone amides, thiazolidine carboxylic acid amides, and serine amides, including polyamine conjugates thereof, as selective anti-cancer agents” (Ohio State Univesity Research Foundation, priority 2003, dated 2010)
